Experiments:
[1] = test system: Human umbilical vein endothelial cell; experiment: In Vitro Angiogenesis Assay (morphogenesis / tube formation on Matrigel, ECMatrix kit); type: cell-based; parameters: key to Results (In Vitro Angiogenesis Assay score): Individual cells, well separated (+++++); Cells begin to migrate and align themselves (++++); Cells begin to line but not sprouting (+++); Visible Sprouting (++); Closed polygons begins to form (+); settings: for Results (In Vitro Angiogenesis Assay score): HUVECs on ECMatrix, 8 hours at 37° C., inhibitors 1 mM and 10 mM, higher score = greater inhibition of angiogenesis
Description: Human umbilical vein endothelial cell was purchased from Cambrex Co. (East Rutherford, N.J.) and maintained in EGM (Endothelial Growth Medium) supplemented with 2% FBS, 0.1% EGF, 0.1% Hydrocortisone, 0.1% GA-1000 and 0.4% BBE.
The morphogenesis assay on Matrigel was performed according to the manufacturer's instructions (Chemicon International). The ECMatrix™ kit consists of laminin, collagen type IV, heparan sulfate, proteoglycans, entactin and nidogen. It also contains various growth factors (TGF-β, FGF) and proteolytic enzymes (plasminogen, tPA, MMPs) that are normally produced in EHS tumors. The incubation condition was optimized for maximal tube-formation as follows: 50 μl of EC Matrix™ was suitably diluted in the ratio 9:1 with 10× diluent buffer and used for coating the 96-well plate. The coated plates were incubated at 37° C. for 1 hr. to allow the Matrix solution to solidify. In the meantime the HUVECs that were cultured for 24 hours in EGM with 2% FBS was trypsinised and re-suspended in the growth media and the cells were counted. After 1 hr. pre-incubation of the plate with Matrix solution, the HUVECs were plated at 10^4 cells/well in the absence or in the presence of different VEGFR inhibitors (1 mM and 10 mM). After 8 hours incubation at 37° C., the cell three-dimensional organization (cellular network structures) was examined under an inverted photomicroscope. Each treatment was performed in triplicate.
Activated endothelial cells form cellular networks (mesh like structures) resembling capillary tubes sprouting into the stromal space. The formation of these cellular networks is a dynamic process, which started migration and alignment of cells followed by the development of capillary tubes like structures, sprouting of new branches and finally the formation of the cellular networks. Although this in vitro angiogenesis kit is designed only as a qualitative assay, we have made an attempt to quantitate the degree of angiogenesis using a scoring method. The scoring was based on the extent of the cellular networks that were observed as follows:
Individual cells, well separated (+++++)
Cells begin to migrate and align themselves (++++)
Cells begin to line but not sprouting (+++)
Closed polygons begins to form (+).
According to our qualitative assessment, the higher the scoring the greater the efficiency of the compound for inhibiting endothelial cell mediated angiogenesis.

GI-101A = experiment: Cytotoxicity towards breast carcinoma cell line GI-101A; type: cell-based
VEGFR = experiment: Assay of VEGF Receptor Tyrosine Kinase Activity (VEGFR immunoprecipitated from cell lysate, non-radioactive PTK ELISA kit); type: biochemical
Excerpt: Protein Tyrosine Kinases (PTKs) perform a critical role in signal transduction pathways that control cell proliferation, differentiation, metabolism, and apoptosis. Phosphorylation of proteins by PTKs is essential for the regulation of these biological mechanisms and defects in these pathways may result in a number of human diseases, including cancer. The important aspect of these enzymes in cellular regulation is accentuated by the fact that for a large number of kinases a corresponding viral oncogene product has been identified. […] CHEMICON's non-radioactive Tyrosine Kinase Activity Assay provides a simple, convenient and specific method for quantification and comparative determination of a wide range of PTKs. […]
The non-radioactive Tyrosine Kinase Activity Assay Kit consists of a synthetic Biotinylated Peptide Substrate, a Biotinylated Phosphopeptide, purified Phosphotyrosine specific monoclonal antibody conjugated to horseradish peroxidase (HRP) and other components required to perform 96 ELISA-based assays. […] The quantity of phosphate incorporated into the tyrosine kinase substrate is determined utilizing the phosphopeptide standard curve. […] The assay reaction would be terminated by the addition of 100 μl of stop solution and finally, the absorbance was measure on a standard microplate reader at 450 nm. […]

MCF-7 = experiment: Cytotoxicity towards breast carcinoma cell line MCF-7; type: cell-based

| Structure (SMILES) | Results (In Vitro Angiogenesis Assay score) [1] | also measured |
| --- | --- | --- |
| O=C(Nc1ccc2c(c1)C(=O)NC2=O)c1nc2ccccc2s1 [Example 1] | ++++ | – |
| N#Cc1ccc(C(=O)Nc2ccc3c(c2)C(=O)NC3=O)cc1 [Example 2] | +++ | – |
| CC(=O)c1ccc(C(=O)Nc2ccc3c(c2)C(=O)NC3=O)cc1 [Example 3] | ++ | – |
| O=C(Nc1cccc2c1C(=O)NC2=O)c1ccc([N+](=O)[O-])o1 [Example 4] | +++++ | cytotoxicity towards GI-101A (GI-101A): produced cytotoxicity; IC50 (VEGFR; VEGFR immunoprecipitated from cell lysate, PTK assay, read-out: IC50 for inhibiting VEGFR kinase): 400 nM; inhibition of VEGFR associated tyrosine kinase activity (in words) (VEGFR; level of inhibition increased with concentration): able to inhibit the VEGFR associated tyrosine kinase activity; EC50 ([1]; Homo sapiens, Endothelial cell, estimated, read-out: EC50 value for anti-antigenic effect): 25 nM; cytotoxicity towards MCF-7 (MCF-7): produced cytotoxicity |
| O=C(Nc1cccc2c1C(=O)NC2=O)c1ccc(S(=O)(=O)N2CCCCC2)cc1 [Example 5] | +++ | – |
| O=C(Nc1cccc2c1C(=O)NC2=O)c1ccc(Cl)s1 [Example 6] | +++ | – |

— patent publication US7939557B2, “Vascular endothelial receptor specific inhibitors” (Nova Southeastern University, priority 2006, dated 2011)
